Assay results as given in patent US11274111B2, “Arginase inhibitors and methods of use” (Merck Sharp & Dohme Corp., priority 2018, dated 2022).
Where a name gives a salt, the structure may show the parent alone.

These compounds were tested against T1, Arginase (Homo sapiens, UniProt P05089) (assay: Arginase Thioornithine Generating Assay (TOGA)). Settings: Top Dose 10000 nM; read-out: Percent Inhibition at Top Dose.
T1 construct: Arginase protein was recombinantly expressed in Escherichia coli
T1 sequence (P05089 1-322): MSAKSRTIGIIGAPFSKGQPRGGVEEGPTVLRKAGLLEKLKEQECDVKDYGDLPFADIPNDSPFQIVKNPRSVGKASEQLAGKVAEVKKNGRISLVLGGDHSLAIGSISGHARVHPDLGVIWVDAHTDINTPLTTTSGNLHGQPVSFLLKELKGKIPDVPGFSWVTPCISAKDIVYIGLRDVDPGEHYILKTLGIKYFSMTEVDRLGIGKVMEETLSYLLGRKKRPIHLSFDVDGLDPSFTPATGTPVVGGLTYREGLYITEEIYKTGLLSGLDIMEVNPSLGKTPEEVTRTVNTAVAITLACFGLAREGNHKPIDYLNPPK
Assay type: biochemical
Protocol: Arginase Thioornithine Generating Assay (TOGA)
Compounds were serially diluted in ten 3-fold steps in DMSO starting from 10 mM DMSO stocks. Compound dilutions or DMSO alone were then dispensed from the dilution plate into a Greiner black 384-well assay plate (catalog #781086) using an Echo 555 acoustic liquid handler (Labcyte).
Arginase protein was recombinantly expressed in Escherichia coli. Purified protein was then diluted in assay buffer (50 mM Tris pH 7.5, 50 mM NaCl, 1 mM manganese chloride, 0.05% bovine serum albumin to obtain a final Arginase concentration of 1.88 nM. Arginase solution (20 μL) or buffer alone (20 μL) were dispensed to wells of the assay plate using a BioRAPTR liquid dispenser (Beckman Coulter). Assay plates containing compound and arginase enzyme were incubated at room temperature for 30 minutes. Afterwards, 5 μL of 2.5 mM thioarginine (Cayman Chemicals) in assay buffer were added to each well of the assay plate using a BioRAPTR liquid dispenser. Plates were incubated at room temperature for 60 minutes and reactions were quenched by addition of 15 μL of 200 uM 7-Diethylamine-3-(4-maleimidophenyl)-4-methylcoumarin (Sigma Chemical) in 70% ethanol. Plates were briefly shaken to mix and the fluorescence was measured in an Spectramax plate reader (Molecular Devices) with a 410 nm excitation wavelength and an 490 nm emission wavelength.
Potencies were calculated by […] to the four parameter logistic IC50 equation.

Row | inhibition at 10 µM [%] | SMILES
1 | 99 | CC(=O)N1C[C@@H]2CC(N)(C(=O)O)C(CCCB(O)O)[C@@H]2C1 (mixture of isomers) [Example 13a, rac-(3aR,6aR)-2-acetyl-5-amino-4-(3-boronopropyl)octahydrocyclopenta[c]pyrrole-5-carboxylic acid]
2 | 97.2 | CN1CC[C@@H]2[C@H]1C[C@@H](CCCB(O)O)C2(N)C(=O)O (relative stereo) [Example 32, rel-(3aR,5R,6aR)-4-amino-5-(3-boronopropyl)-1-methyloctahydrocyclopenta[b]pyrrole-4-carboxylic acid]
3 | 93 | NC1(C(=O)O)C(CCCB(O)O)C[C@H]2C[C@H]21 (relative stereo) [Example 36a, rel-(1R,5R)-2-amino-3-(3-boronopropyl)bicyclo[3.1.0]hexane-2-carboxylic acid]
4 | 67.2 | N=C(N)N1C[C@@H]2C[C@@](N)(C(=O)O)[C@@H](CCCB(O)O)[C@@H]2C1 (single isomer, unassigned) [Example 11a]
5 | 90.6 | NC(=O)N1CC2CC(N)(C(=O)O)C(CCCB(O)O)C2C1 (single isomer, unassigned) [Example 17a, 5-amino-4-(3-boronopropyl)-2-carbamoyloctahydrocyclopenta[c]pyrrole-5-carboxylic acid]
6 | 100 | NC1(C(=O)O)CC2CN(S(N)(=O)=O)CC2C1CCCB(O)O (single isomer, unassigned) [Example 18a, 5-amino-4-(3-boronopropyl)-2-sulfamoyloctahydrocyclopenta[c]pyrrole-5-carboxylic acid]
7 | 86.5 | N[C@@]1(C(=O)O)C[C@H]2C(=O)NC[C@H]2[C@@H]1CCCB(O)O (single isomer, unassigned) [Example 23a]
8 | 38.8 | N[C@@]1(C(=O)O)C[C@H]2CNC(=O)[C@H]2[C@@H]1CCCB(O)O (single isomer, unassigned) [Example 23b]
9 | 97.9 | NCC(=O)N1C[C@@H]2CC(N)(C(=O)O)C(CCCB(O)O)[C@@H]2C1 (stereo in doubt) [Example 16, 5-amino-2-(2-aminoacetyl)-4-(3-boronopropyl)octahydrocyclopenta[c]pyrrole-5-carboxylic acid]
10 | 99.8 | N[C@@]1(C(=O)O)C[C@H]2CN(Cc3ccc(F)cc3)C[C@H]2[C@@H]1CCCB(O)O [Example 3, (3aR,4S,5S,6aR)-5-amino-4-(3-boronopropyl)-2-(4-fluorobenzyl)octahydrocyclopenta[c]pyrrole-5-carboxylic acid]
11 | 97.4 | C[C@H](N)C(=O)N1C[C@@H]2C[C@@](N)(C(=O)O)[C@@H](CCCB(O)O)[C@@H]2C1 [Example 4, (3aR,4S,5S,6aR)-2-(L-alanyl)-5-amino-4-(3-boronopropyl)octahydrocyclopenta[c]pyrrole-5-carboxylic acid]
12 | 95.1 | NCC(=O)N1C[C@@H]2C[C@@](N)(C(=O)O)[C@@H](CCCB(O)O)[C@@H]2C1 [Example 5, (3aR,4S,5S,6aR)-5-amino-4-(3-boronopropyl)-2-glycyloctahydrocyclopenta[c]pyrrole-5-carboxylic acid]
13 | 94.2 | N[C@@H](CO)C(=O)N1C[C@@H]2C[C@@](N)(C(=O)O)[C@@H](CCCB(O)O)[C@@H]2C1 [Example 6, (3aR,4S,5S,6aR)-2-(L-seryl)-5-amino-4-(3-boronopropyl)octahydrocyclopenta[c]pyrrole-5-carboxylic acid]
14 | 72.8 | CC(=O)N1C[C@@H]2C[C@@](N)(C(=O)O)[C@@H](CCCB(O)O)[C@@H]2C1 [Example 7, (3aR,4S,5S,6aR)-2-acetyl-5-amino-4-(3-boronopropyl)octahydrocyclopenta[c]pyrrole-5-carboxylic acid]
15 | 74.8 | CC(C)N1C[C@@H]2C[C@@](N)(C(=O)O)[C@@H](CCCB(O)O)[C@@H]2C1 [Example 8, (3aR,4S,5S,6aR)-5-amino-4-(3-boronopropyl)-2-isopropyloctahydrocyclopenta[c]pyrrole-5-carboxylic acid]
16 | 98 | NCCN1C[C@@H]2C[C@@](N)(C(=O)O)[C@@H](CCCB(O)O)[C@@H]2C1 [Example 9, (3aR,4S,5S,6aR)-5-amino-2-(2-aminoethyl)-4-(3-boronopropyl)octahydrocyclopenta[c]pyrrole-5-carboxylic acid]
17 | 55.9 | N[C@@]1(C(=O)O)C[C@H]2CN(CC(F)(F)F)C[C@H]2[C@@H]1CCCB(O)O [Example 10, (3aR,4S,5S,6aR)-5-amino-4-(3-boronopropyl)-2-(2,2,2-trifluoroethyl)octahydrocyclopenta[c]pyrrole-5-carboxylic acid]
18 | 85.3 | CCN1C[C@@H]2C[C@@](N)(C(=O)O)[C@@H](CCCB(O)O)[C@@H]2C1 [Example 12, (3aR,4S,5S,6aR)-5-amino-4-(3-boronopropyl)-2-ethyloctahydrocyclopenta[c]pyrrole-5-carboxylic acid]
19 | 88.6 | NC(=O)CN1CC2CC(N)(C(=O)O)C(CCCB(O)O)C2C1 (stereo not shown) [Example 15, 5-amino-2-(2-amino-2-oxoethyl)-4-(3-boronopropyl)octahydrocyclopenta[c]pyrrole-5-carboxylic acid]
20 | 93.9 | CN[C@@]1(C(=O)O)C[C@H]2CNC[C@H]2[C@@H]1CCCB(O)O [Example 22, (3aR,4S,5S,6aR)-4-(3-boronopropyl)-5-(methylamino)octahydrocyclopenta[c]pyrrole-5-carboxylic acid]

Row | SMILES | inhibition at 10 µM [%]
21 | NC1(C(=O)O)C(CCCB(O)O)C[C@H]2CNC[C@H]21 (mixture of isomers) [Example 28, rac-(3aS,6aR)-4-amino-5-(3-boronopropyl)octahydrocyclopenta[c]pyrrole-4-carboxylic acid] | 90.4
22 | NC1(C(=O)O)CC2(CNC2)CC1CCCB(O)O (single isomer, unassigned) [Example 35c, 6-amino-7-(3-boronopropyl)-2-azaspiro[3.4]octane-6-carboxylic acid] | 82.3
23 | N[C@@]1(C(=O)O)C[C@H]2CNC[C@H]2[C@@H]1CCCB(O)O [Example 1e, (3aR,4S,5S,6aR)-5-amino-4-(3-boronopropyl)octahydrocyclopenta[c]pyrrole-5-carboxylic acid] | 98.9

Same assay, conditions: Top Dose 16000 nM; read-out: Percent Inhibition at Top Dose

Row | inhibition at 16 µM [%] | SMILES
24 | 82.7 | CN(C)CC(=O)N1C[C@@H]2CC(N)(C(=O)O)C(CCCB(O)O)[C@@H]2C1 (stereo in doubt) [Example 19, 5-amino-4-(3-boronopropyl)-2-(2-(dimethylamino)acetyl)octahydrocyclopenta[c]pyrrole-5-carboxylic acid]
25 | 82.6 | CN1C[C@@H]2C[C@@](N)(C(=O)O)[C@@H](CCCB(O)O)[C@@H]2C1 [Example 2, (3aR,4S,5S,6aR)-5-amino-4-(3-boronopropyl)-2-methyloctahydrocyclopenta[c]pyrrole-5-carboxylic acid]

Row | SMILES | inhibition at 16 µM [%]
26 | N[C@@]1(C(=O)O)C[C@H]2CNC[C@H]2[C@@H]1CCCB(O)O [Example 1f, (3aR,4S,5S,6aR)-5-amino-4-(3-boronopropyl)octahydrocyclopenta[c]pyrrole-5-carboxylic acid] | 87.8

Same assay, conditions: Top Dose 100000 nM; read-out: Percent Inhibition at Top Dose

Row | SMILES | inhibition at 100 µM [%]
27 | NC1(C(=O)O)C[C@H]2CNC[C@H]2C1CCCB(O)O (relative stereo) [Example 1, (3aR,6aR-rel-)-5-amino-4-(3-boronopropyl)octahydrocyclopenta[c]pyrrole-5-carboxylic acid] | 99.4
28 | N[C@@]1(C(=O)O)C[C@H]2CNC[C@H]2[C@@H]1CCCB(O)O [Example 1a] | 104
29 | NC1(C(=O)O)C2CNC(C2)C1CCCB(O)O (stereo not shown) [Example 24, 5-amino-6-(3-boronopropyl)-2-azabicyclo[2.2.1]heptane-5-carboxylic acid] | 95.9

Same assay, conditions: read-out: Percent Inhibition at Top Dose, Top Dose 10000 nM

Row | SMILES | inhibition at 10 µM [%]
30 | NC1(C(=O)O)C(CCCB(O)O)C[C@H]2NCC[C@H]21 (mixture of isomers) [Example 20f, (3aR,6aR)-4-amino-5-(3-boronopropyl)octahydrocyclopenta[b]pyrrole-4-carboxylic acid] | 99.2
31 | N[C@]1(C(=O)O)[C@H](CCCB(O)O)C[C@H]2NCC[C@H]21 [Example 20b, (3aR,4R,5R,6aR)-4-amino-5-(3-boronopropyl)octahydrocyclopenta[b]pyrrole-4-carboxylic acid] | 101
32 | C[C@H](N)C(=O)N1CCCC12CCC(N)(C(=O)O)C(CCCB(O)O)C2 (stereo partly drawn) [Example 26, 8-amino-1-((S)-2-aminopropanoyl)-7-(3-boronopropyl)-1-azaspiro[4.5]decane-8-carboxylic acid hydrochloride] | 45.2

Same assay, conditions: recombinant arginase 1.88 nM, thioarginine substrate

Row | IC50 [nM] | SMILES
33 | 82.7 | CN1C[C@@H]2C[C@@](N)(C(=O)O)[C@@H](CCCB(O)O)[C@@H]2C1 [Example 2, (3aR,4S,5S,6aR)-5-amino-4-(3-boronopropyl)-2-methyloctahydrocyclopenta[c]pyrrole-5-carboxylic acid]
34 | 108 | C[C@H](N)C(=O)N1C[C@@H]2C[C@@](N)(C(=O)O)[C@@H](CCCB(O)O)[C@@H]2C1 [Example 4, (3aR,4S,5S,6aR)-2-(L-alanyl)-5-amino-4-(3-boronopropyl)octahydrocyclopenta[c]pyrrole-5-carboxylic acid]
35 | 160 | NCC(=O)N1C[C@@H]2C[C@@](N)(C(=O)O)[C@@H](CCCB(O)O)[C@@H]2C1 [Example 5, (3aR,4S,5S,6aR)-5-amino-4-(3-boronopropyl)-2-glycyloctahydrocyclopenta[c]pyrrole-5-carboxylic acid]
36 | 179 | N[C@@H](CO)C(=O)N1C[C@@H]2C[C@@](N)(C(=O)O)[C@@H](CCCB(O)O)[C@@H]2C1 [Example 6, (3aR,4S,5S,6aR)-2-(L-seryl)-5-amino-4-(3-boronopropyl)octahydrocyclopenta[c]pyrrole-5-carboxylic acid]
37 | 5270 | N[C@@]1(C(=O)O)C[C@H]2CN(CC(F)(F)F)C[C@H]2[C@@H]1CCCB(O)O [Example 10, (3aR,4S,5S,6aR)-5-amino-4-(3-boronopropyl)-2-(2,2,2-trifluoroethyl)octahydrocyclopenta[c]pyrrole-5-carboxylic acid]
